≈ marks a conversion by molar mass, not a printed value. Where two headings read alike, the source gives them in different places.
Tests used:
A. fumigatus CEA10 = experiment: Fatty acid profile of 24-hour biofilms by GC-MS; type: cell-based, Aspergillus fumigatus; settings: CEA10 24-hour biofilm; MBX-7591 0.58 µg/mL, voriconazole 0.0625 µg/mL
Mucor spp. = experiment: CLSI-based microbroth dilution MIC, spectrum of activity; type: cell-based; settings: for MIC: Mucor
Aspergillus fumigatus [1] = experiment: Colony recovery after CLSI MIC testing (fungicidal test); type: cell-based; settings: at MIC (2.453 μg/ml) and 2X MIC (4.906 μg/ml)
Description: Perhaps consistent with these lipid profiling data, transmission electron microscopy images of MBX-7591-treated cells reveal a loss of cellular membrane integrity, a large increase in the electron translucent cell wall, and a significant increase in electron density in the cytoplasm (Fig. S1B). These TEM images are consistent with cell death upon MBX-7591 treatment.
115 Supplementary Figure 1. MBX-7591 pre-treatment induces cell death.
116 A) Biofilms grown for 12 hours with MBX-7591 pre-treatment (PT) are more susceptible to
117 subsequent 6-hour voriconazole (VCZ) treatment. MBX-7591 PT + VCZ biofilms show higher
118 sytox staining and nuclear collapse indicative of increased cell membrane permeability and cell
119 death. B) TEM image of cross section of Aspergillus fumigatus hyphae from 24-hour biofilms
120 grown in vehicle control or 0.588 μg/ml MBX-7591. MBX-7591 induces changes in the cell wall,
121 increased vacuolization and increased cytosolic density (black arrows). C) MBX-7591 reduces
CLSI assay done as described in methods and incubated for 48 hours at
124 37°C, 5%CO2. Subsequently 100 µL of untreated control, ½ MIC, MIC and 2X MIC wells were
125 plated onto GMM and incubated at 37°C, 5%CO2 for 48h. Representative images of fungal
126 growth of 2 independent biological replicates shown.

Fusarium spp. = experiment: CLSI-based microbroth dilution MIC, spectrum of activity; type: cell-based; settings: solani and oxysporum
Cryptococcus neoformans = experiment: FIC checkerboard assay MBX-7591 and oleic acid, C. neoformans; type: cell-based; settings: H99, MBX-7591 + 31.25 μg/ml OA
Description: Single-treatment controls were completed with 50 µL of media to substitute the volume of the other compound. […] Additional untreated and media-only controls were added to the plate as described above. Incubation of the plates and MIC assessments (individual and in combination) were performed as described above. FIC calculations were done according to the established formula: ∑FIC=MIC combination compound A/MIC individual compound A + MIC combination compound B/MIC individual compound B . Synergy was considered equal or lower than 0.5, and antagonism was considered to be higher than 2. FIC scores reported represent between three and five biological replicates. All antifungal susceptibility testing was done in 96-well plates using RPMI 1640 media buffered with 165 mM of MOPS and pH 7 using NaOH. CLSI-based microbroth dilution assays were done in accordance with M27 ([49]). […] Additionally, an untreated control (100 µL of a stock of 2 × 10^3 spores/mL and 100 µL of media) and a media-only control (200 µL media) were included in the plate. The plate was covered in a Breathe-Eazy membrane to allow for uniform oxygen diffusion throughout the plate and incubated for 24 hours at 35°C (Candida spp.) or 72 hours at 35°C ± 5% CO2 (Cryptococcus neoformans).

Candida auris = experiment: CLSI-based microbroth dilution MIC for yeast; type: cell-based; settings: Candidozyma auris
Aspergillus fumigatus [2] = experiment: Agar-based colony biofilm assay; type: cell-based; settings: for inhibition at 0.58 µg/mL / inhibition at 1.16 µg/mL: Aspergillus fumigatus; for growth of parental wild-type strain in the presence of MBX-7591 (of untreated): concentration not given
Caco-2 permeability = type: in vitro ADME; settings: human
HeLa cells (ATCC CCL-2) = experiment: Mammalian cell cytotoxicity (CC50); type: cell-based
Description: (§1) The half-maximal cytotoxic concentration (CC50) of each compound against HeLa cells (ATCC CCL-2) was measured as previously described ([50]). Each assay comprised three technical replicates, and each assay was repeated at least once. The mean values for each biological replicate were averaged, and the CC50 was determined using a four-parameter nonlinear curve fitting algorithm (GraphPad Prism). The average of the CC50s from two biological replicates was calculated and reported.

[3] = Mammalian cell cytotoxicity (CC50); type: cell-based; settings: human, HeLa cells (ATCC CCL-2)
Description: as §1

[4] = Liver microsome stability; type: in vitro ADME; settings: mouse; murine liver microsomes, NADPH; read-out: MLMS (t1/2)
Description: To examine the potential for first-pass metabolism of analogs in the liver, the stability of analogs in the presence of liver microsome preparations (Eurofins Discovery for human, dog, and rat; Xenotech for mouse) was measured using the method of Kuhnz and […] ([52]). The amount of parent compound remaining after incubation with microsomes in the presence of NADPH over a 30-min time range was measured using a reverse-phase liquid chromatography/mass spectroscopy method that was customized for each compound. Half-lives were calculated using linear regression analysis of several time points.

Candida albicans = experiment: CLSI-based microbroth dilution MIC for yeast; type: cell-based
Rhizopus delemar = experiment: CLSI-based microbroth dilution MIC, spectrum of activity; type: cell-based; settings: strain 99-880; for MIC: Rhizopus delemar
Aspergillus fumigatus [5] = experiment: FIC checkerboard synergy assay, A. fumigatus; type: cell-based; settings: for MIC: Aspergillus fumigatus
Aspergillus nidulans = experiment: microbe, parasite or virus in culture; type: cell-based; settings: strain FGSC A4

O=C(c1ccsc1)N1CCC(Cc2ccc(COc3ccncc3)cc2)CC1 [MBX-7591]
C14:0 relative percentage of fatty acids (A. fumigatus CEA10): 0.19 ± 0.057 | C15:0 relative percentage of fatty acids (A. fumigatus CEA10): 0.59 ± 0.034 | C16:0 (palmitic acid) relative percentage of fatty acids (A. fumigatus CEA10): 23.30 ± 0.48 | C16:1n7 relative percentage of fatty acids (A. fumigatus CEA10): 0.68 ± 0.040 | C17a relative percentage of fatty acids (A. fumigatus CEA10): 0.15 ± 0.025 | C18:0 (stearic acid) relative percentage of fatty acids (A. fumigatus CEA10): 4.44 ± 0.95 | C18:1n7 relative percentage of fatty acids (A. fumigatus CEA10): 1.30 ± 0.18 | C18:1n9 (oleic acid) relative percentage of fatty acids (A. fumigatus CEA10): 20.48 ± 1.30 | C18:2n6 relative percentage of fatty acids (A. fumigatus CEA10): 48.87 ± 0.91 | MIC (Mucor spp.; CBS277, strain CBS 277.49): > 39.2 µg/mL | MIC (Mucor spp.; strain DI15-131, read-out: MIC UTHSC): > 32 µg/mL | MIC UTHSC (Mucor spp.; strain Mucor1): > 32 µg/mL | MIC UTHSC (Mucor spp.; strain Mucor2): > 32 µg/mL | colony formation after 48 hours of treatment of conidia (Aspergillus fumigatus [1]): No colony-forming units were observed at or 2× the MIC | MIC (Fusarium spp.): > 39.2 µg/mL | MIC (Fusarium spp.; read-out: MIC UTHSC): > 32 µg/mL | FIC value (Cryptococcus neoformans): > 4 | MIC (Candida auris; Clade I, Clade III): > 39.2 µg/mL | MIC (Candida auris; NIH: DI17-47, DI17-48, DI17-46, read-out: MIC UTHSC): > 32 µg/mL | inhibition at 0.58 µg/mL (Aspergillus fumigatus [2]; AFS35, 0.58 μg/mL, read-out: growth inhibition): ~61% | inhibition at 1.16 µg/mL (Aspergillus fumigatus [2]; AFS35, 1.16 μg/mL, read-out: growth inhibition): ~70% | inhibition at 0.58 µg/mL (Aspergillus fumigatus [2]; phspA:atrR, 0.58 μg/mL, read-out: growth inhibition): ~9% | inhibition at 1.16 µg/mL (Aspergillus fumigatus [2]; phspA:atrR, 1.16 μg/mL, read-out: growth inhibition): ~19% | inhibition at 1.16 µg/mL (Aspergillus fumigatus [2]; read-out: growth inhibition, hspA-atrR;ΔsrbA, 1.16 µg/mL): ~81% | inhibition at 0.58 µg/mL (Aspergillus fumigatus [2]; read-out: growth inhibition, ΔatrR, 0.58 μg/mL): ~69% | inhibition at 1.16 µg/mL (Aspergillus fumigatus [2]; read-out: growth inhibition, ΔatrR, 1.16 μg/mL): ~86% | inhibition at 0.58 µg/mL (Aspergillus fumigatus [2]; read-out: growth inhibition, ΔsrbA, 0.58 μg/mL): ~62% | inhibition at 1.16 µg/mL (Aspergillus fumigatus [2]; read-out: growth inhibition, ΔsrbA, 1.16 μg/mL): ~72% | inhibition at 1.16 µg/mL (Aspergillus fumigatus [2]; read-out: growth inhibition, ΔsrbAΔatrR, 1.16 µg/mL): ~92% | growth of parental wild-type strain in the presence of MBX-7591 (of untreated) (Aspergillus fumigatus [2]; first of two values): ~ 67% | growth of parental wild-type strain in the presence of MBX-7591 (of untreated) (Aspergillus fumigatus [2]; second of two values): ~ 89% | efflux ratio (Caco-2 permeability): 0.49 | Papp A→B (Caco-2 permeability; A→B, method b66 gives Papp in cm/s): 11 ×10⁻⁶ cm/s | Papp B→A (Caco-2 permeability; B→A, method b66 gives Papp in cm/s): 5.6 ×10⁻⁶ cm/s | CC50 (HeLa cells (ATCC CCL-2)): ≥ 100 µM | CC50 [3]: > 100 µM | half-life [4]: 40 min | MIC (Candida albicans; strain SC5314): > 39.2 µg/mL | MIC (Candida albicans; strain SC5314, read-out: MIC UTHSC): > 32 µg/mL | MIC (Rhizopus delemar): 0.31 µg/mL (≈ 0.79 µM) | MIC (Rhizopus delemar; read-out: MIC UTHSC): ~0.25 µg/mL (≈ 0.637 µM) | MIC UTHSC (Rhizopus delemar): 0.25 µg/mL (≈ 0.637 µM) | average FIC (Aspergillus fumigatus [5]): 0.5 | MIC (Aspergillus fumigatus [5]; strain 08-19-02-61, alone): 2.45 µg/mL | MIC (Aspergillus fumigatus [5]; strain 08-31-08-91, alone): 4.91 µg/mL | MIC (Aspergillus fumigatus [5]; strain F11628, alone): 2.45 µg/mL | MIC (Aspergillus fumigatus [5]; strain F15390 (caf8), alone): 2.45 µg/mL | FIC value (Aspergillus fumigatus [5]; CEA10, MBX-7591 + 7.81 μg/ml OA): 4 | FIC value (Aspergillus fumigatus [5]; CEA10, MBX-7591 + 15.63 μg/ml OA): 8 | FIC value (Aspergillus fumigatus [5]; CEA10, MBX-7591 + 31.25 μg/ml OA): > 8 | FIC value (Aspergillus fumigatus [5]; strain 08-19-02-61, MBX-7591 + VCZ): 0.5 | FIC value (Aspergillus fumigatus [5]; strain 08-31-08-91, MBX-7591 + VCZ): 0.5 | FIC score (Aspergillus fumigatus [5]; strain CEA10, MBX-7591 + FLC): 0.312 | FIC value (Aspergillus fumigatus [5]; strain CEA10, MBX-7591 + VCZ): 0.375–0.5 | FIC value (Aspergillus fumigatus [5]; strain F11628, MBX-7591 + VCZ): 0.3125–0.375 | FIC value (Aspergillus fumigatus [5]; strain F15390 (caf8), MBX-7591 + VCZ): 0.5 | MIC (Aspergillus nidulans): > 39.2 µg/mL

From PMC11253624, “Unsaturated fatty acid perturbation combats emerging triazole antifungal resistance in the human fungal pathogen Aspergillus fumigatus” (mBio, 2024)
